In patent US20190269705A1, “METHODS AND MATERIALS FOR TREATING GRAFT VERSUS HOST DISEASE” (Regents of the University of Minnesota, priority 2017, published 2019):

Key:
Th1 cells = experiment: Intracellular metabolites by mass spectrometry and pathway analysis, Th1; assay type: cell-based, mouse; details: for Hits: Th1 Pathway
Method: Differentiation: CD4 cells were isolated as previously described and differentiated in subset-specific medium (in triplicate) for 3 days, split at day 3 with new media and IL-2, then allowed to incubate a further 2 days. At day 5, wells were combined, cells washed lx in MACS buffer, re-isolated for CD4 via AutoMACS Pro automated magnetic separator (Miltenyi, Cat #: 130-092-545). Metabolites from Th1 and Th17 cells were extracted as described above.
Differentiation. CD4 cells were isolated as previously described and differentiated in subset-specific medium in the presence of vehicle or CB839 (in triplicate) for 3 days, split at day 3 with new media and IL-2, then allowed to incubate a further 2 days. At day 5, wells were combined, cells washed 1× in MACS buffer and re-isolated for CD4 via AutoMACS Pro automated magnetic separator (Miltenyi, Cat #: 130-092-545). Metabolites from Th1 and Th17 cells were extracted and analyzed by LC-HRMS using a Q-Exactive as described previously (Gerriets et al., 2015). Data were range scaled and analyzed using Metaboanalyst 3.5 (Xia and Wishart, 2002) to generate heat maps and for principle component analyses.

Th17 cells = experiment: 3H-2-deoxyglucose uptake and ECAR, Th17; assay type: cell-based, mouse
Method: Glucose uptake assays were performed as described elsewhere (see, e.g., Macintyre et al., 2014 Cell Metab. 20(1):61-72). Naïve CD4+ T cells were differentiated into Th1 and Th17 cells, in triplicate, in the presence or absence of CB839 over 5 days and spun down after reisolation using CD4 kit as previously described. Cells were washed 2× in PBS, counted, then rested in 1 mL Kreb's Ringers HEPES (KRH) for 10 minutes. Cells were spun and resuspended to 5×10^5 cells/50 uL KRH for glucose uptake assay. Briefly, cells were […]. Cells incubated for 10 minutes at 37° C. Immediately after incubation, reaction was quenched with 200 μM phloretin (Calbiochem, Cat #: 524488). Cells were spun, washed, and then resuspended in scint fluid for counting on Beckman-Coulter scintillation counter. Pathway analysis of altered metabolites was performed using Metaboanalyst 3.0 (metaboanalyst. ca/faces/home.xhtml).
Experiments were carried out on Agilent Seahorse XF96 bioanalyzer (Agilent). Briefly, wild type CD4+ cells were isolated as previous and activated for 3 days on CD3/CD28 as previously described, or skewed to Th1 and Th17 subsets as described above. T cells were spun onto XF96 Cell-Tak (BD Bioscience, Cat #: 354240) coated plates and rested in Seahorse XF RPMI 1640 media supplemented with glutamine, sodium pyruvate, and glucose. For immediate metabolic response, CB839 and UK5099 were injected separately or in combination, and OCR and ECAR measured.
Glucose uptake assays were performed as previously described (Macintyre et al.,2014). Naïve CD4+ T cells were differentiated into Th1 and Th17 cells, in triplicate, in the presence or absence of CB839 over five days and spun down after reisolation using CD4 kit as previously described. At day 3 and 5, cells were removed, washed twice in PBS, counted, then rested in 1 mL Kreb's Ringers HEPES (KRH) for at least 10 minutes. Cells were spun and resuspended to 5×10^5 cells/50 μL KRH for glucose uptake assay. Briefly, 3H-2-deoxyglucose was suspended in KRH bubble layered in oil, and cells were added to this bubble. Cells were incubated for 10 minutes at 37° C. Immediately after incubation, reaction was quenched with 200 μM phloretin (Calbiochem, Cat #: 524488). Cells were spun, washed, and then resuspended in scintilation fluid for counting on Beckman-Coulter scintillation counter (3H, 1 min/sample read).
Experiments were carried out on Agilent Seahorse XF96 bioanalyzer (Agilent). Briefly, wild type CD4+ cells were isolated as previous and activated for 3 days on αCD3/CD28 coated plates as previously described, or skewed to Th1 and Th17 subsets as described above. T cells were isolated and spun onto XF96 Cell-Tak (BD Bioscience, Cat #: 354240) coated plates and rested in Seahorse XF RPMI 1640 media supplemented with glutamine, sodium pyruvate, and glucose. For immediate metabolic response, 1 μM CB839 and 5 μM UK5099 (Cat #: PZ0160-5MG) were injected separately or in combination, and OCR and ECAR measured. For activation response, 1 uM CB839 was injected into IL-7 maintained naïve CD4+ T cells in seahorse medium and allowed to incubate for 20 minutes, followed by soluble αCD3/CD28 injection.

[1] = test system: CD4 T cells (Th0 conditions); experiment: CD4 T cells activated and cultured in IL2 (Th0 conditions), flow cytometry
[2] = Th17, day 5, listed as GLS inhibitor
[3] = activated CD4 T cells, IL2, day 5

O=C(Cc1cccc(OC(F)(F)F)c1)Nc1ccc(CCCCc2nnc(NC(=O)Cc3ccccn3)s2)nn1 [CB839]
2-hydroxyglutarate (2-HG) (Th1 cells; Th1, CB839-treated vs vehicle): increased in both Th1 and Th17
intracellular α-KG (Th1 cells; Th1, CB839-treated vs vehicle): reduced
programs of intracellular metabolites (Th1 cells; Th1, differentiated with CB839, 5 days): shifted
glutamate and aspartate levels (Th1 cells; Th1, over five days): rapidly decreased
steady state levels of glutamine (Th1 cells; Th1, over five days): rapidly increased
Hits (Th1 cells; Alanine, aspartate and glutamate metabolism): 8
Hits (Th1 cells; Arginine and proline metabolism): 6
Hits (Th1 cells; Butanoate metabolism): 3
Hits (Th1 cells; Citrate cycle (TCA cycle)): 5
Hits (Th1 cells; Cysteine and methionine metabolism): 3
Hits (Th1 cells; D-Glutamine and Dglutamate metabolism): 3
Hits (Th1 cells; Histidine metabolism): 3
Hits (Th1 cells; Nitrogen metabolism): 2
Hits (Th1 cells; Pyrimidine metabolism): 6
Hits (Th1 cells; Pyruvate metabolism): 3
glucose uptake (Th17 cells; Th17, day 5): decreased
media acidification (ECAR, glycolytic flux) (Th17 cells; Th17, day 5): decreased
glucose uptake (Th17 cells; [2]): remained impaired
media acidification (ECAR, glycolytic flux) (Th17 cells; [2]): remained impaired
glucose uptake (Th17 cells; Th17, day three): reduced
Foxp3 expression ([1]; CD4+ T cells stimulated in the presence of IL-2 and CB839): unchanged
phospho-S6 ([1]; Th0 cells in the presence of IL2): enhanced phospho-S6
IFNγ expression [1, 3]: greater expression of IFNγ
Tbet expression [1, 3]: greater expression
